# Experimental data taken from patent publication US20240270821A1, “GIP/GLP1/GCG TRI-RECEPTOR AGONISTS AND USES THEREOF” (priority 2023, published 2024).
# Read-outs that look alike come from different tables or passages of the source. Starred links: 1 amine or outer side, 2 acyl side, 3 side chain; linkers in the order of their positions; H or OH if unused. Non-standard residues stand in square brackets, D forms with d. Groups on a side chain read outwards from the residue. No end group written: not given here. *: point of attachment. C18 diacid = O=C(O)CCCCCCCCCCCCCCCCC(=O)*; αMePhe(2-F) = C[C@](N)(Cc1ccccc1F)C(=O)O; γGlu = O=C(O)[C@H](CCC(=O)[*:2])N[*:1]; αMe4Pal = C[C@](N)(Cc1ccncc1)C(=O)O; αMeY = C[C@](N)(Cc1ccc(O)cc1)C(=O)O; 4Pal = N[C@@H](Cc1ccncc1)C(=O)O; αMeL = CC(C)C[C@](C)(N)C(=O)O; αMeS = C[C@](N)(CO)C(=O)O; Orn = NCCC[C@H](N)C(=O)O; AEEA = NCCOCCOCC(=O)O; Aib = CC(C)(N)C(=O)O
# Legend:
# Assay type in all cases: cell-based
# hGIPR [1] = molecular target: T1, hGIPR (Homo sapiens, UniProt P48546); assay: Functional cAMP activity in the presence of 1% HSA; conditions: read-out: cAMP Rel EC50, hGIPR
# T1 sequence (P48546 22-466): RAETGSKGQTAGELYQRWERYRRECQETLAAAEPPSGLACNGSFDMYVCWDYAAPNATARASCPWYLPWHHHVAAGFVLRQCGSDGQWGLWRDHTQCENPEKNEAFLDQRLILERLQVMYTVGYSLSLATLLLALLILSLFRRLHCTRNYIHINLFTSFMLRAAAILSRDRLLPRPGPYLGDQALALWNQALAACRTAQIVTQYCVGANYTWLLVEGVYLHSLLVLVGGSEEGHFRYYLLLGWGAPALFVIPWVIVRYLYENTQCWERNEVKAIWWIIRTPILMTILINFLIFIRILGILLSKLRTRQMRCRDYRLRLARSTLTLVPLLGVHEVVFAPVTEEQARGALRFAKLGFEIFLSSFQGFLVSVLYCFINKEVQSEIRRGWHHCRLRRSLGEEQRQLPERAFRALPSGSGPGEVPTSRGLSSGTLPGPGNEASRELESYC
# hGLP-1R [2] = molecular target: T2, hGLP-1R (Homo sapiens, UniProt P43220); assay: Functional cAMP activity in the presence of 1% HSA; conditions: read-out: cAMP Rel EC50, hGLP-1R
# human GcgR = human GcgR (Homo sapiens, UniProt P47871); assay: Functional cAMP activity in the presence of 1% HSA; conditions: read-out: cAMP Rel EC50, hGcgR
# hGIPR [3] = molecular target: T1, hGIPR; assay: Functional cAMP activation in the presence of 0.1% casein (no HSA); conditions: read-out: Relative cAMP EC50, hGIPR;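 as to Relative cAMP EC50, hGIPR: intracellular cAMP rise after 30 min at 37 °C read by HTRF against a standard curve, scaled between buffer alone (0%) and top control ligand concentration (100%), four-parameter fit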;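 as to Relative cAMP EC50, hGLP-1R: intracellular cAMP rise after 30 min at 37 °C read by HTRF, normalized between buffer only (0%) and maximal control ligand (100%), four-parameter variable-slope fit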;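 as to Relative cAMP EC50, hGcgR: intracellular cAMP rise after 30 min at 37 °C, read by HTRF against a cAMP standard curve, scaled from buffer only (0%) to maximal control ligand response (100%)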
# hGLP-1R [4] = molecular target: T2, hGLP-1R; assay: as above; conditions: read-out: Relative cAMP EC50, hGLP-1R
# Procedure: After a 30-minute incubation at 37° C., the resulting increase in intracellular cAMP is quantitatively determined using the CisBio CAMP Dynamic 2 HTRF Assay Kit (62AM4PEJ). Briefly, cAMP levels within the cell are detected by adding the cAMP-d2 conjugate in cell lysis buffer followed by the antibody anti-cAMP-Eu^3+-Cryptate, also in cell lysis buffer.
# Intracellular cAMP levels are determined by extrapolation using a standard curve. Dose response curves of compounds are plotted as the percentage of stimulation normalized to minimum (buffer only) and maximum (maximum concentration of each control ligand) values and analyzed using a four parameter non-linear regression fit with a variable slope (Genedata Screener 13). EC50 is the concentration of compound causing half-maximal simulation in a dose response curve. Each relative EC50 value for the Geometric mean calculation is determined from a curve fitting.
# hGcgR = hGcgR (Homo sapiens, UniProt P47871); assay: as above; conditions: read-out: Relative cAMP EC50, hGcgR;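 also: intracellular cAMP rise after 30 min at 37 °C, read by HTRF against a cAMP standard curve, scaled from buffer only (0%) to maximal control ligand response (100%)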
# [5] = HEK-293 clonal cell line, 1% HSA, geometric mean of relative EC50
# [6] = in the presence of 0.1% casein (no HSA), geometric mean of relative EC50
# [7] = 0.1% casein, no HSA, geometric mean
# [8] = in the presence of 0.1% casein (no HSA), geometric mean
# Chain of human GcgR (P47871 26-477): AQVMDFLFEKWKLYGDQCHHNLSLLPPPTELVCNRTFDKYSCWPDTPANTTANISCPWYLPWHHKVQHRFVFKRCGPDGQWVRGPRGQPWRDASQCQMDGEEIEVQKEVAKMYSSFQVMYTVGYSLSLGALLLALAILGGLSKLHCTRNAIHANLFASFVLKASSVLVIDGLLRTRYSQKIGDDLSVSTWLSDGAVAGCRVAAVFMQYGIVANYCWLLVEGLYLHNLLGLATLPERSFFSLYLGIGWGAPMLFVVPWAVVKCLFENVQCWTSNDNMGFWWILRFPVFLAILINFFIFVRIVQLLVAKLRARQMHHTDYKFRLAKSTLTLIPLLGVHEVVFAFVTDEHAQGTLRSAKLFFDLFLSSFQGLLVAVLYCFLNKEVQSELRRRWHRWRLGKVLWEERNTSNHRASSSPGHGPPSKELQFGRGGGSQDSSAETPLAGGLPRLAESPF
# Chain of hGcgR (P47871 26-477): as above
# T2 sequence (P43220 24-463): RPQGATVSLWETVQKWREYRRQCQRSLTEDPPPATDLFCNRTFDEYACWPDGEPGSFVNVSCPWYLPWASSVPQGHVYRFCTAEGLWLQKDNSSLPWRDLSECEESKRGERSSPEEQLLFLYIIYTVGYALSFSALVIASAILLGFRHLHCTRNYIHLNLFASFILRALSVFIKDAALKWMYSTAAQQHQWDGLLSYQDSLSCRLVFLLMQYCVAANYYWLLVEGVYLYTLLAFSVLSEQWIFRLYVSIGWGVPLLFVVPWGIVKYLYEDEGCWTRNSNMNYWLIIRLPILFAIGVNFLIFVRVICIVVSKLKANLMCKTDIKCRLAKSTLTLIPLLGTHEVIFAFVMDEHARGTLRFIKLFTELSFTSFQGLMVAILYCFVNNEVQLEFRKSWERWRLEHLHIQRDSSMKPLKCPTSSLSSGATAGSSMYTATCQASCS
Substance,EC50 (hGIPR [1]),EC50 (hGLP-1R [2]),EC50 (human GcgR),EC50 (hGIPR [3]),EC50 (hGLP-1R [4]),EC50 (hGcgR),also measured
Y[Aib]QGT[αMePhe(2-F)]TSD[4Pal]SI[αMeL]LD[Orn]K([AEEA-γGlu-C18 diacid])AQ[αMe4Pal][Orn]FI[dE][αMeY]LIEGGPSSGEPPPEGEG[dE]-NH2 [Example 692],–,–,–,–,–,–,EC50 (hGIPR [1]; [5]): 1.25 nM; EC50 (hGLP-1R [2]; [5]): 25.2 nM; EC50 (human GcgR; [5]): 380 nM; EC50 (hGIPR [3]; [6]): 0.0106 nM; EC50 (hGLP-1R [4]; [6]): 0.252 nM; EC50 (hGcgR; [6]): 2.14 nM
Y[Aib]QGT[αMePhe(2-F)]TSD[4Pal]SI[αMeL]LD[Orn]K([AEEA-γGlu-C18 diacid])AQ[αMe4Pal][Orn]FI[dE][αMeY]LIEGGPSSGEPPPEGGGE-NH2 [Example 757],1.81 nM,30.8 nM,310 nM,0.00959 nM,0.236 nM,2.32 nM,–
Y[Aib]QGT[αMePhe(2-F)]TSD[4Pal]SI[αMeL]LD[Orn]K([AEEA-γGlu-C18 diacid])AQ[αMe4Pal][Orn]FI[dE][αMeY]LIEGGPSSGEPPPEGTE-NH2 [Example 679],1.02 nM,21.6 nM,188 nM,0.0123 nM,0.255 nM,3.22 nM,–
Y[Aib]QGT[αMePhe(2-F)]TSD[4Pal]SI[αMeL]LD[Orn]K([AEEA-γGlu-C18 diacid])AQ[αMe4Pal][Orn]FI[dE][αMeY]LIEGGPSSGEPPPEGT[dE]-NH2 [Example 691],1.17 nM,28.9 nM,308 nM,0.0117 nM,0.26 nM,2.46 nM,–
Y[Aib]QGT[αMePhe(2-F)]TSD[4Pal]SI[αMeL]LD[Orn]QAQ[αMe4Pal][Orn]FI[dE][αMeY]LIEGGPSSGEPPPETE-NH2 [Example 1230],0.0152 nM,1.14 nM,68.4 nM,–,–,–,EC50 (hGIPR [3]; [7]): 0.022 nM; EC50 (hGLP-1R [4]; [7]): 1.19 nM; EC50 (hGcgR; [7]): 64.7 nM
Y[Aib]QGT[αMePhe(2-F)]TSD[4Pal][αMeS]ILLD[Orn]K([γGlu-γGlu-C18 diacid])AQ[Aib][Orn]FI[dE]YLIEGGPSSGEPPPEGEEE-NH2 [Example 606],5.69 nM,53.1 nM,474 nM,0.17 nM,0.786 nM,5.01 nM,–
Y[Aib]QGT[αMePhe(2-F)]TSD[4Pal][αMeS]ILLD[Orn]K([γGlu-γGlu-C18 diacid])AQ[Aib][Orn]FI[dE]YLIEGGPSSGEPPPEGGEE-NH2 [Example 605],6.69 nM,56.2 nM,353 nM,0.132 nM,0.795 nM,5.49 nM,–
Y[Aib]QGT[αMePhe(2-F)]TSD[4Pal][αMeS]ILLD[Orn]K([γGlu-γGlu-C18 diacid])AQ[Aib][Orn]FI[dE]YLIEGGPSSGEPPPSETE-NH2 [Example 555],–,–,–,–,–,–,EC50 (hGIPR [1]; [5]): 5.31 nM; EC50 (hGLP-1R [2]; [5]): 42 nM; EC50 (human GcgR; [5]): 274 nM; EC50 (hGIPR [3]; [6]): 0.0601 nM; EC50 (hGLP-1R [4]; [6]): 0.445 nM; EC50 (hGcgR; [6]): 3.56 nM
Y[Aib]QGT[αMePhe(2-F)]TSD[4Pal][αMeS]ILLD[Orn]K([γGlu-γGlu-C18 diacid])AQ[Aib][Orn]FI[dE][αMeY]LQEGGPSSGEPPPEGAE-NH2 [Example 546],11.9 nM,34.4 nM,225 nM,0.25 nM,0.517 nM,3.67 nM,–
Y[Aib]QGT[αMePhe(2-F)]TSD[4Pal][αMeS]I[αMeL]LD[Orn]K([AEEA-γGlu-C18 diacid])AA[Aib]EFI[dE][αMeY]LIEGGPSSGAPPPSGE-NH2 [Example 701],0.979 nM,24.9 nM,226 nM,0.01 nM,0.22 nM,1.48 nM,–
Y[Aib]QGT[αMePhe(2-F)]TSD[4Pal][αMeS]I[αMeL]LD[Orn]K([AEEA-γGlu-C18 diacid])AA[Aib]EFI[dE][αMeY]LIEGGPSSGAPPPSGGGE-NH2 [Example 745],1.36 nM,29 nM,266 nM,0.012 nM,0.212 nM,1.86 nM,–
Y[Aib]QGT[αMePhe(2-F)]TSD[4Pal][αMeS]I[αMeL]LD[Orn]K([AEEA-γGlu-C18 diacid])AA[Aib]EFI[dE][αMeY]LIEGGPSSGEPPPSGTE-NH2 [Example 719],–,–,–,–,–,–,EC50 (hGIPR [1]; [5]): 0.882 nM; EC50 (hGLP-1R [2]; [5]): 23.2 nM; EC50 (human GcgR; [5]): 181 nM; EC50 (hGIPR [3]; [6]): 0.00998 nM; EC50 (hGLP-1R [4]; [6]): 0.22 nM; EC50 (hGcgR; [6]): 1.44 nM
Y[Aib]QGT[αMePhe(2-F)]TSD[4Pal][αMeS]I[αMeL]LD[Orn]K([AEEA-γGlu-C18 diacid])AQ[αMe4Pal]EFI[dE][αMeY]LIEGGPPS[Aib]EPPPEGE-NH2 [Example 1190],0.954 nM,77.4 nM,192 nM,–,–,–,EC50 (hGIPR [3]; [8]): 0.0109 nM; EC50 (hGLP-1R [4]; [8]): 0.765 nM; EC50 (hGcgR; [8]): 1.68 nM
Y[Aib]QGT[αMePhe(2-F)]TSD[4Pal][αMeS]I[αMeL]LD[Orn]K([AEEA-γGlu-C18 diacid])AQ[αMe4Pal]EFI[dE][αMeY]LIEGGPPS[Aib]EPPP[Orn]GE-NH2 [Example 1193],0.803 nM,66.2 nM,202 nM,–,–,–,EC50 (hGIPR [3]; [7]): 0.00897 nM; EC50 (hGLP-1R [4]; [7]): 0.544 nM; EC50 (hGcgR; [7]): 1.56 nM
Y[Aib]QGT[αMePhe(2-F)]TSD[4Pal][αMeS]I[αMeL]LD[Orn]K([AEEA-γGlu-C18 diacid])AQ[αMe4Pal]EFI[dE][αMeY]LIEGGPPS[Aib][Orn]PPPSGSE-NH2 [Example 1198],0.67 nM,61 nM,314 nM,–,–,–,EC50 (hGIPR [3]; [7]): 0.00663 nM; EC50 (hGLP-1R [4]; [7]): 0.475 nM; EC50 (hGcgR; [7]): 1.8 nM
Y[Aib]QGT[αMePhe(2-F)]TSD[4Pal][αMeS]I[αMeL]LD[Orn]K([AEEA-γGlu-C18 diacid])AQ[αMe4Pal]EFI[dE][αMeY]LIEGGPPS[Aib][Orn]PPP[Orn]SE-NH2 [Example 1196],0.605 nM,45.4 nM,257 nM,–,–,–,EC50 (hGIPR [3]; [7]): 0.00756 nM; EC50 (hGLP-1R [4]; [7]): 0.418 nM; EC50 (hGcgR; [7]): 1.9 nM
Y[Aib]QGT[αMePhe(2-F)]TSD[4Pal][αMeS]I[αMeL]LD[Orn]K([AEEA-γGlu-C18 diacid])AQ[αMe4Pal]EFI[dE][αMeY]LIEGGPSSGAPPPESE-NH2 [Example 1146],0.825 nM,40.1 nM,198 nM,–,–,–,EC50 (hGIPR [3]; [8]): 0.00628 nM; EC50 (hGLP-1R [4]; [8]): 0.281 nM; EC50 (hGcgR; [8]): 1.22 nM
Y[Aib]QGT[αMePhe(2-F)]TSD[4Pal][αMeS]I[αMeL]LD[Orn]K([AEEA-γGlu-C18 diacid])AQ[αMe4Pal]EFI[dE][αMeY]LIEGGPSSGEPPPEGTGE-NH2 [Example 763],1.16 nM,42.5 nM,222 nM,0.00719 nM,0.302 nM,1.57 nM,–
Y[Aib]QGT[αMePhe(2-F)]TSD[4Pal][αMeS]I[αMeL]LD[Orn]K([AEEA-γGlu-C18 diacid])AQ[αMe4Pal]EFI[dE][αMeY]LIEGGPSSGEPPPESE-NH2 [Example 1147],0.831 nM,45.4 nM,167 nM,–,–,–,EC50 (hGIPR [3]; [8]): 0.00753 nM; EC50 (hGLP-1R [4]; [8]): 0.347 nM; EC50 (hGcgR; [8]): 1.17 nM
Y[Aib]QGT[αMePhe(2-F)]TSD[4Pal][αMeS]I[αMeL]LD[Orn]K([AEEA-γGlu-C18 diacid])AQ[αMe4Pal]EFI[dE][αMeY]LIEGGPSSGEPPPSGE-NH2 [Example 1141],0.816 nM,47.5 nM,169 nM,–,–,–,EC50 (hGIPR [3]; [8]): 0.00921 nM; EC50 (hGLP-1R [4]; [8]): 0.412 nM; EC50 (hGcgR; [8]): 1.15 nM
Y[Aib]QGT[αMePhe(2-F)]TSD[4Pal][αMeS]I[αMeL]LD[Orn]K([AEEA-γGlu-C18 diacid])AQ[αMe4Pal]EFI[dE][αMeY]LVEGGPSSGAPPPSGGGE-NH2 [Example 769],1.02 nM,34 nM,269 nM,0.00852 nM,0.247 nM,1.33 nM,–
Y[Aib]QGT[αMePhe(2-F)]TSD[4Pal][αMeS]I[αMeL]LD[Orn]K([AEEA-γGlu-C18 diacid])AQ[αMe4Pal]EFI[dE][αMeY]LVEGGPSSGEPPPSGGGE-NH2 [Example 735],1.32 nM,40.7 nM,236 nM,0.012 nM,0.386 nM,1.97 nM,–
